≈ marks a conversion by molar mass, not a printed value.
Assay: Compound solubility in water
Type: physicochemical

Row | SMILES | solubility
1 | C#Cc1ccc(NC(=O)c2cnn3c(C)cc(C)nc23)nc1 [III-1] | < 1.5 µg/mL
2 | C#Cc1ccc(NC(=O)c2cnn3c(C)cc(C)nc23)cn1 [III-2] | < 1.5 µg/mL
3 | Cc1cc(C)n2ncc(C(=O)Nc3ccc(-c4ccccc4)cc3)c2n1 [III-3] | < 1.5 µg/mL
4 | COCC#Cc1ccc(NC(=O)c2cnn3c(C)cc(C)nc23)cc1 [III-4] | < 1.5 µg/mL
5 | Cc1cc(C)n2ncc(C(=O)Nc3ccc(Oc4ccccc4)cc3)c2n1 [III-5] | < 1.5 µg/mL
6 | Cc1cc(C)n2ncc(C(=O)Nc3ccc(-n4ccnc4)cc3)c2n1 [III-6] | < 1.5 µg/mL
7 | Cc1cc(C)n2ncc(C(=O)Nc3ccc(-c4nccs4)cc3)c2n1 [III-7] | < 1.5 µg/mL
8 | C#Cc1ccc(NC(=O)c2cnn3c(C)cc(C)nc23)c(OC)c1 [III-8] | < 1.5 µg/mL
9 | Cc1cc(C)n2ncc(C(=O)Nc3ccc(-c4ccon4)cc3)c2n1 [III-9] | < 1.5 µg/mL
10 | Cc1cc(C)n2ncc(C(=O)Nc3ccc(-c4cocn4)cc3)c2n1 [III-10] | < 1.5 µg/mL
11 | Cc1cc(C)n2ncc(C(=O)Nc3ccc(-c4ncco4)cc3)c2n1 [III-11] | < 1.5 µg/mL
12 | Cc1cc(C)n2ncc(C(=O)Nc3cc(-c4ccccc4)on3)c2n1 [III-12] | < 1.5 µg/mL
13 | C#CC1CCC(NC(=O)c2cnn3c(C)cc(C)nc23)CC1 (stereo not drawn) [III-13] | 26 µg/mL (≈ 87.7 µM)
14 | C#C[C@H]1CC[C@H](NC(=O)c2cnn3c(C)cc(C)nc23)CC1 [III-14] | 17.6 µg/mL (≈ 59.4 µM)
15 | C#C[C@H]1CC[C@@H](NC(=O)c2cnn3c(C)cc(C)nc23)CC1 [III-15] | 8 µg/mL (≈ 27 µM)
16 | Cc1cc(C)n2ncc(C(=O)Nc3ccc(-c4cnsc4)cc3)c2n1 [III-16] | < 1.5 µg/mL
17 | Cc1cc(C)n2ncc(C(=O)Nc3ccc(-c4cnoc4)cc3)c2n1 [III-17] | < 1.5 µg/mL
18 | Cc1cc(C)n2ncc(C(=O)Nc3cc(C4(C(F)(F)F)CC4)on3)c2n1 [III-18] | 2.6 µg/mL (≈ 7.12 µM)
19 | Cc1cc(C)n2ncc(C(=O)Nc3ccc(-c4cocn4)nc3)c2n1 [III-19] | 3 µg/mL (≈ 8.97 µM)
20 | Cc1cc(C)n2ncc(C(=O)Nc3ccc(-c4cccs4)nc3)c2n1 [III-20] | < 1.5 µg/mL
21 | Cc1cc(C)n2ncc(C(=O)Nc3ccc(-c4ccncc4)nc3)c2n1 [III-21] | < 1.5 µg/mL

Row | SMILES | solubility
22 | Cc1cc(C)n2ncc(C(=O)Nc3ccc(-c4ccco4)nc3)c2n1 [III-22] | < 1.5 µg/mL
23 | Cc1cc(C)n2ncc(C(=O)Nc3ccc(-c4cnn(C)c4)nc3)c2n1 [III-23] | < 1.5 µg/mL
24 | Cc1cc(C)n2ncc(CNc3ccc(-c4cocn4)nc3)c2n1 [III-24] | > 64 µg/mL
25 | Cc1ccn2ncc(CNc3ccc(-c4cocn4)cc3)c2n1 [III-25] | 54 µg/mL (≈ 177 µM)
26 | Cc1ccn2ncc(CNc3ccc(-c4ncco4)cc3)c2n1 [III-26] | 39 µg/mL (≈ 128 µM)
27 | Cc1cc(C)n2ncc(C(=O)Nc3ccc(-c4cscn4)cc3)c2n1 [III-27] | < 1.5 µg/mL
28 | Cc1cc(C)n2ncc(C(=O)Nc3nc4ccccc4[nH]3)c2n1 [III-28] | < 1.5 µg/mL
29 | COCC#Cc1ccc(NCc2cnn3c(C)cc(C)nc23)cc1 [III-29] | 5.4 µg/mL (≈ 16.9 µM)
30 | Cc1cc(C)n2ncc(C(=O)Nc3ccc(-c4ncc[nH]4)cc3)c2n1 [III-30] | < 1.5 µg/mL
31 | Cc1cc(C)n2ncc(C(=O)Nc3ccc(-c4cc[nH]n4)cc3)c2n1 [III-31] | 33 µg/mL (≈ 99.3 µM)
32 | CCCCCOc1ccc(NC(=O)c2cnn3c(C)cc(C)nc23)cc1 [III-32] | < 1.5 µg/mL
33 | C#CCOc1ccc(NC(=O)c2cnn3c(C)cc(C)nc23)cc1 [III-33] | < 1.5 µg/mL
34 | Cc1cc(C)n2ncc(C(=O)Nc3ccc(CCCC(=O)O)cc3)c2n1 [III-34] | < 1.5 µg/mL
35 | Cc1cc(C)n2ncc(C(=O)Nc3ccc(C(C)O)cc3)c2n1 (stereo not drawn) [III-35] | 10 µg/mL (≈ 32.2 µM)
36 | Cc1cc(C)n2ncc(C(=O)Nc3ccc(CCC(=O)O)cc3)c2n1 [III-36] | 59.6 µg/mL (≈ 176 µM)
37 | Cc1cc(C)n2ncc(CNc3ccc(-c4cocn4)cc3)c2n1 [III-37] | 26.1 µg/mL (≈ 81.7 µM)
38 | Cc1cc(C)n2ncc(C(=O)Nc3ccc(N=[N+]=[N-])cc3)c2n1 [III-38] | < 1.5 µg/mL
39 | Cc1cc(C)n2ncc(C(=O)Nc3ccc(-c4cccs4)cc3)c2n1 [III-39] | < 1.5 µg/mL
40 | Cc1cc(C)n2ncc(C(=O)Nc3ccc4[nH]c(C)cc4c3)c2n1 [III-40] | 0.3 µg/mL (≈ 0.939 µM)
41 | Cc1cc(C)n2ncc(C(=O)Nc3ccc4[nH]ncc4c3)c2n1 [III-41] | 0.5 µg/mL (≈ 1.63 µM)
42 | Cc1cc(C)n2ncc(C(=O)Nc3ccc4cn[nH]c4c3)c2n1 [III-42] | 0.4 µg/mL (≈ 1.31 µM)

Row | SMILES | solubility
43 | Cc1cc(C)n2ncc(C(=O)Nc3ccc4nc(C)oc4c3)c2n1 [III-44] | 0.3 µg/mL (≈ 0.934 µM)
44 | Cc1cc(C)n2ncc(C(=O)Nc3ccc4nc(C)[nH]c4c3)c2n1 [III-45] | 1.2 µg/mL (≈ 3.75 µM)
45 | Cc1cc(C)n2ncc(C(=O)Nc3ccc4c(c3)CCNC4)c2n1 [III-46] | 33.4 µg/mL (≈ 104 µM)
46 | Cc1cc(C)n2ncc(C(=O)Nc3ccc4oncc4c3)c2n1 [III-47] | 0.9 µg/mL (≈ 2.93 µM)
47 | Cc1cc(C)n2ncc(C(=O)Nc3ccc4oc(-c5ccncc5)nc4c3)c2n1 [III-48] | 0.3 µg/mL (≈ 0.78 µM)
48 | Cc1cc(C)n2ncc(C(=O)Nc3ccc4[nH]c(-c5ccco5)nc4c3)c2n1 [III-49] | 0.4 µg/mL (≈ 1.07 µM)
49 | Cc1cc(C)n2ncc(C(=O)Nc3ccc4nc(C)sc4c3)c2n1 [III-50] | 2.3 µg/mL (≈ 6.82 µM)
50 | Cc1cc(C)n2ncc(C(=O)Nc3ccc(Cl)c(COc4cccnc4)c3)c2n1 [III-51] | 0.06 µg/mL (≈ 0.147 µM)
51 | Cc1cc(C)n2ncc(C(=O)Nc3ccc(C)c(-c4ncco4)c3)c2n1 [III-52] | 0.05 µg/mL (≈ 0.144 µM)
52 | Cc1cc(C)n2ncc(C(=O)Nc3ccc(Cl)c(-c4cnco4)c3)c2n1 [III-53] | < 0.05 µg/mL
53 | Cc1cc(C)n2ncc(C(=O)Nc3ccc(-c4cnn(C)c4)cc3)c2n1 [III-54] | 2.1 µg/mL (≈ 6.06 µM)
54 | Cc1cc(C)n2ncc(C(=O)Nc3ccc(-c4ccco4)cc3)c2n1 [III-55] | < 1.5 µg/mL
55 | Cc1cc(C)n2ncc(C(=O)Nc3ccc(-c4ccncc4)cc3)c2n1 [III-56] | < 1.5 µg/mL
56 | Cc1cc(C)n2ncc(C(=O)NC3CCCc4ccccc43)c2n1 (stereo not drawn) [III-58] | 2.6 µg/mL (≈ 8.11 µM)
57 | CCCCCO[C@H]1CC[C@H](NC(=O)c2cnn3c(C)cc(C)nc23)CC1 [III-59] | 7.1 µg/mL (≈ 19.8 µM)
58 | Cc1cc(C)n2ncc(C(=O)N[C@@H](C)c3ccccc3F)c2n1 [III-60] | 7.2 µg/mL (≈ 23.1 µM)
59 | COc1ccccc1[C@H](C)NC(=O)c1cnn2c(C)cc(C)nc12 [III-61] | 1.4 µg/mL (≈ 4.32 µM)
60 | COc1ccccc1[C@@H](C)NC(=O)c1cnn2c(C)cc(C)nc12 [III-62] | 2.5 µg/mL (≈ 7.71 µM)
61 | Cc1cc(C)n2ncc(C(=O)N[C@@H](C)c3cccc(Cl)c3)c2n1 [III-63] | 11.9 µg/mL (≈ 36.2 µM)
62 | Cc1cc(C)n2ncc(C(=O)N[C@H](C)c3ccc(Cl)cc3)c2n1 [III-64] | 0.7 µg/mL (≈ 2.13 µM)
63 | Cc1cc(C)n2ncc(C(=O)N[C@H](C)c3ccc(F)cc3)c2n1 [III-65] | 27.6 µg/mL (≈ 88.4 µM)

Row | SMILES | solubility
64 | Cc1cc(C)n2ncc(C(=O)NC(C)C3CCC(F)(F)CC3)c2n1 (stereo not drawn) [III-66] | 20.6 µg/mL (≈ 61.2 µM)
65 | Cc1cc(C)n2ncc(C(=O)NC(C)(C)c3ccc(Cl)cc3)c2n1 [III-67] | 2.2 µg/mL (≈ 6.42 µM)
66 | Cc1cc(Cl)n2ncc(C(=O)NC(C)(C)c3ccc(Cl)cc3)c2n1 [III-68] | 2.1 µg/mL (≈ 5.78 µM)
67 | Cc1cc(Cl)nc2c(C(=O)NC(C)(C)c3ccc(Cl)cc3)cnn12 [III-69] | 5.1 µg/mL (≈ 14 µM)
68 | Cc1cc(C)n2ncc(C(=O)NC(C)(C)c3ccc(F)cc3F)c2n1 [III-70] | 2 µg/mL (≈ 5.81 µM)
69 | CO[C@H]1CC[C@H](C(C)(C)NC(=O)c2cnn3c(C)cc(C)nc23)CC1 [III-71] | 21.4 µg/mL (≈ 62.1 µM)
70 | CO[C@H]1CC[C@@H](C(C)(C)NC(=O)c2cnn3c(C)cc(C)nc23)CC1 [III-72] | 15.1 µg/mL (≈ 43.8 µM)
71 | Cc1cc(C)n2ncc(C(=O)Nc3ccc4c(c3)C(C3=NCCN3)CCC4)c2n1 (stereo not drawn) [III-73] | 34 µg/mL (≈ 87.5 µM)
72 | C#Cc1ccc(NCc2cnn3c(C)cc(C)cc23)cc1 [III-74] | 0.2 µg/mL (≈ 0.726 µM)
73 | Cc1cc(C)n2ncc(C(=O)Nc3ccc(Cl)c(C(C)Oc4cccnc4)c3)c2n1 (stereo not drawn) [III-75] | 0.1 µg/mL (≈ 0.237 µM)
74 | C#Cc1ccc(NC(=O)c2cnn3c(C)cc(NC)nc23)cc1 [III-77] | 4.2 µg/mL (≈ 13.8 µM)
75 | C#Cc1ccc(NC(=O)c2cnn3c(NC)cc(C)nc23)cc1 [III-78] | < 1.5 µg/mL
76 | Cc1cc(C)n2ncc(C(=O)NC3CCc4ccccc43)c2n1 (stereo not drawn) [III-79] | 0.8 µg/mL (≈ 2.61 µM)
77 | C#Cc1ccc(NC(=O)c2cnn3c(C)cc(C)nc23)cc1 [IV-1] | < 1.5 µg/mL
78 | Cc1cc(C)n2ncc(C(=O)Nc3ccc(C#CCN(C)C)cc3)c2n1 [IV-2] | 5.1 µg/mL (≈ 14.7 µM)
79 | Cc1cc(C)n2ncc(C(=O)Nc3ccc(N4CCCCC4)cc3)c2n1 [IV-3] | < 1.5 µg/mL
80 | Cc1cc(C)n2ncc(C(=O)Nc3ccc4c(c3)OCO4)c2n1 [IV-4] | 0.6 µg/mL (≈ 1.93 µM)
81 | Cc1cc(C)n2ncc(C(=O)Nc3ccc4c(c3)CCC4)c2n1 [IV-5] | 0.5 µg/mL (≈ 1.63 µM)

— patent US9732089B2, “Substituted pyrazolo[1,5-a]pyrimidines and their use in the treatment of medical disorders” (Lysosomal Therapeutics Inc., priority 2014, dated 2017)
